Assay type in all cases: cell-based, human
The test system of assay [1] is cell lines 1-4, 7, 10-11, and 13-23. Nature of the assay: Lenalidomide sensitivity of cell types of Example 2, other cell lines. An excerpt:
(§1) Twenty-three types of cells from, e.g., ATL cell lines, lymphoma cell lines, leukemia cell lines, healthy peripheral blood mononuclear cells (PBMCs), and human T-lymphotropic virus 1 (HTLV-1) carrier's PBMCs are employed in this example.

Another assay relates to RPMI-8226. Briefly: CellTiter cell proliferation assay, RPMI-8226 (multiple myeloma, irresponsive control). The settings on record: RPMI-8226 multiple myeloma control cell line. An excerpt:
(§2) ATL cell lines Hut102, ED40515, S1T, OATL4, and OATL9, HTLV-1 transformed cell lines MT-2, MT-4, and C8166, PTCL cell line Hut78, other T-cell Jurkat, MOLT4, HL60, and monocyte cell line K562 are laboratory stocks (Dr. Hidekatsu Iha, Oita University, and Prof. Kazuhiro Morishita, The University of Miyazaki). ATL cell lines ST1, KOB, KK1, and SO4 are gift from Dr. Hiroo Hasegawa, Nagasaki University). NCI-H929 and RPMI-8226 were purchased from American Type Culture Collection (ATCC: Manassas, Va.). Each cell line was maintained with RPMI-1640 culture media supplemented with 15% fetal bovine serum (FBS: Equitech-Bio Inc., Kerrville, Tex.), penicillin G (50 U/ml), and streptomycin (50 μg/ml). Antibiotics were purchased from Sigma-Aldrich Co. LLC. (St. Louis, Mo.).
(§3) Cells were plated in 24-well plates at 5×10^4 cells per 1.5 mL RPMI1640 and kept in 5% CO2 incubator for 24 hours (cell number should reach 1×10^5). […] After 10 minutes incubation at room temperature, the reaction mixture in 96-well plates was read by Glomax luminometer (Promega). Average values and standard deviation were obtained from four independent experiments.
(§4) Relative CellTiter values compared to untreated control cells at day 0 were plotted. […] In addition, OATL4 and KOB display 30% more reductions (see Table 2).

In assay [2] the test system is cell line 6 (ATL cell line). Briefly: Lenalidomide sensitivity of cell types of Example 2, cell line 6.
Excerpt: as §1

The test system of the next assay is KOB. Nature of the assay: CellTiter cell proliferation assay, KOB (ATL cell line). The settings on record: see Table 2.
Excerpt: as §2, §3, §4

The next assay relates to OATL4. Briefly: CellTiter cell proliferation assay, OATL4 (ATL cell line). The settings on record: see Table 2.
Excerpt: as §2, §3, §4

Assay [3] relates to cell line 12 (ATL cell line). Briefly: Lenalidomide sensitivity of cell types of Example 2, cell line 12.
Excerpt: as §1

For the next assay, the system named is HuT78. Nature of the assay: CellTiter cell proliferation assay, HuT78 (HTLV-1 negative T-cell line). The settings on record: 10 μM lenalidomide for three days.
Excerpt: as §2, §3
Relative CellTiter values compared to untreated control cells at day 0 were plotted. […]
(§5) The CellTiter Assay was performed the same way as in Section 6.3, Example 3. Standard deviation was calculated from four experiments.

Assay [4] has as its system cell line 5 (ATL cell line). Nature of the assay: Lenalidomide sensitivity of cell types of Example 2, cell line 5.
Excerpt: as §1

The next assay deals with Hut102. Nature of the assay: CellTiter cell proliferation assay, Hut102 (ATL cell line).
Excerpt: as §2, §3, §4, §5

The next assay deals with MT-4. Nature of the assay: CellTiter cell proliferation assay, MT-4 (HTLV-1 transformed).
Excerpt: as §2, §3, §4

Another assay concerns MOLT4. Nature of the assay: CellTiter cell proliferation assay, MOLT4. The conditions noted are these: MOLT-4; see Table 2.
Excerpt: as §2, §3, §4

In another assay the test system is NCI-H929. Briefly: CellTiter cell proliferation assay, NCI-H929 (multiple myeloma, responsive control). The settings on record: NCI-H929 multiple myeloma control cell line.
Excerpt: as §2, §3, §4

[5] abbreviates: Homo sapiens, HuT-102, read-out: remaining activities (cell proliferation activity).

A value given as a limit tells only on which side of the number the result lay.

As to `Nc1cccc2c1CN(C1CCC(=O)NC1=O)C2=O` (centres unmarked) [lenalidomide, 1-oxo-2-(2,6-dioxopiperidin-3-yl)-4-aminoisoindoline], the sensitivity to lenalidomide result in assay [1] is listed as “intense tolerance”; in assay [2] it was “weak/moderate-sensitive”; in [3], “weak/moderate-sensitive”; in [4], “highly-sensitive”; in the assay with MT-4, “moderate sensitive”. Further, the “response against lenalidomide treatment (FIG. 3)” value is “insensitive” in the assay with RPMI-8226 and “sensitive” with NCI-H929. The growth inhibition with KOB and in the assay with MOLT4 was 30% in each case. Besides, the “reductions of cell proliferation activity” value in the assay with KOB and in the assay on OATL4 was at least 30% throughout. The “time-dependent cell growth (remaining growth activities, FIG. 4)” value is reported as “almost unchanged” in the assay with HuT78 and “significant decrease in cell growth” in the assay on Hut102 (HuT102, 10 μM lenalidomide for three days). The activity at 0.1 µM in the assay on Hut102 (setting [5]) is 64.2%. Moreover, the activity at 1 µM in the assay on Hut102 (setting [5]) is 68.3%. In addition, in the assay on Hut102 (setting [5]), the activity at 10 µM was determined as 46%. In addition, in the assay on Hut102 (setting [5]), the activity at 100 µM was 53%.

These data come from patent publication US10338077B2, “Methods for determining drug efficacy for treatment of cancer ration of cereblon associated proteins” (Celgene Corporation, priority 2015, dated 2019).
